Measured values reported in US11241501B2, “Anticancer prodrug for overcoming drug resistance” (Korea University Research and Business Foundation, priority 2018, dated 2022).

Columns and labels:
[1] = system: cancer cells (A549 and HepG2), normal cells (NHDF and IMR90); assay: Cellular uptake of compounds in normal and cancer cells; type: cell-based, human; conditions: 5 μM, 6 h, A549, HepG2 vs NHDF
Procedure: Cells were treated with 5 μM of each compound for 6 h. Fluorescence intensities were determined using SpectraMAX 13;
(§1) To analyze the cellular fluorescence levels upon compound treatment, cells were seeded in plates 1 day before treatment with the compounds. Cells were then treated with each compound for the indicated dose or time course. After the experiment, cells were washed with ice-cold PBS, trypsinized, and centrifuged. The cell pellet was re-suspended in 300 μL of PBS and then analyzed using a multiplate reader (SpectraMAX I3x). The results were normalized according to the number of cells.

HepG2 cells [2] = assay: Confocal intracellular localization with MitoTracker; type: cell-based, human; conditions: HepG2, 5 μM, 24 hr
Procedure: (§2) HepG2 cells treated with each compound (5 μM, 24 hr) were co-stained with the mitochondrial marker MitoTracker (green). Boxed regions show co-localization of the test compounds and probe within the mitochondria. […] Experiments were carried out in triplicate and the data shown represent means±SD. **p<0.01. […] HepG2 cells were incubated with BNPP (100 μM) for 2 hr prior to C1 treatment. **p<0.01. […] Cleaved caspase-3 and PARP-1 levels were examined to assess apoptosis induction. C, cleaved.
Cells were seeded on glass chamber slides (Nalgene Nunc) followed by probe treatment. After 48 h, the cells were fixed with 4% formaldehyde, and blocked with 2% bovine serum albumin-PBS for 30 min. The mitochondria were stained using MitoTracker™ Green FM (Invitrogen, USA) for 30 min. Fluorescent images were obtained using a confocal laser scanning microscope (Carl Zeiss MicroImaging, Inc., Germany).

HepG2 cells [3] = assay: WST cell viability assay; type: cell-based, human
Procedure: as §2
(§3) Cells were seeded in 24 well plates at 2×10^5 cells per well and were allowed to adhere for at least 24 h, growth medium was replaced with medium containing C1 or its analogues at the indicated concentrations and times, and cell viability was assessed via the WST-1 assay (Roche Diagnostics, Laval, QC, Canada). For the colony formation assay, cells were seeded in 6-well plates. After 24 h, cells were maintained in the presence of each probe or vehicle dimethyl sulfoxide (DMSO) for 10 days. Colonies were fixed with methanol for 10 min and stained with 0.05% crystal violet in 20% ethanol.

MCF7 and MCF7/Dox cells = assay: Intracellular accumulation, fluorescence assay; type: cell-based, human; conditions: up to 12 hr after treatment
Procedure: (§4) Fluorescence intensities were measured with SpectraMAX 13. Data represent means±SD. **p<0.01. […] Data represent means±SD. **[…]. […] Data represent the mean±SD (n=3 experimental replicates). *p<0.05, **p<0.01. […] MCF7/Dox cells were treated with C1 or C3 as indicated, and the cytosolic (C) and mitochondrial (M) fractions were subjected to immunoblot assay. COX-IV and tubulin were used as markers for the mitochondria and cytosol fractions, respectively.
Mito-tracker (green) was utilized to show the mitochondria;
as §1

MCF7 cells = assay: Colony formation assay; type: cell-based, human; conditions: 10 days
Procedure: as §3

[4] = system: MCF7/Dox xenograft tumors; assay: Independent comparative xenograft study of C1-C4; type: in vivo, mice; conditions: n=5 per group, FIG. 23C
Description: Tumors are shown (right). […] C1 injection led to a 58% reduction in tumor growth, which was statistically greater than the reductions seen in the case of C2 (16%), C3 (9%), C4 (6%) and DMSO (0%) tested under otherwise identical conditions.

[5] = system: p21^Waf1 and phosphorylated PDH levels; assay: Immunoblot assay of p21Waf1 and phosphorylated PDH; type: cell-based, human
Procedure: as §2
(§5) Immunoblot analyses were performed using antibodies specific for phosphorylated serine 293 PDH-EI (ab92696), p21^Waf1 (sc-397), cleaved PARP (5625), cleaved caspase-3 (9664), COX-IV (4850), and Cytochrome c (4280). They were purchased from Abcam (Cambridge, UK), Santa Cruz Biotechnology (Texas, USA) or Cell Signaling Technology (Massachusetts, USA). Anti-tubulin antibodies were obtained from Sigma-Aldrich (St. Louis, USA). Briefly, cells were washed twice in ice-cold PBS and lysed in a radioimmunoprecipitation assay buffer containing 50 mM Tris/HCl (pH 7.5), 150 mM NaCl, 0.1% sodium dodecyl sulfate (SDS), 1% Triton X-100, 1% sodium deoxycholate, and protease inhibitor mixture. After sonification, the lysate was centrifuged, and the supernatant was recovered and loaded onto a 12% SDS-polyacrylamide gel for electrophoresis.

MCF7/Dox cells = assay: Cytochrome c release from mitochondria, immunoblot; type: cell-based, human
Procedure: as §4
as §5, with “electrophoresis. […]” for “electrophoresis.”

C#CCC(OC(=O)N[C@H]1C[C@H](O[C@H]2C[C@](O)(C(=O)CO)Cc3c(O)c4c(c(O)c32)C(=O)c2c(OC)cccc2C4=O)O[C@@H](C)[C@H]1O)c1ccc(NC(=O)C(Cl)Cl)cc1 (stereo partly drawn) [C2]
tumor cell selectivity of cellular uptake [1]: no cellular selectivity | intracellular (mitochondrial) localization (HepG2 cells [2]): no detectable mitochondrial localization | IC50 (HepG2 cells [3]; HepG2 cells, WST assay, read-out: IC50 (cytotoxicity)): 10.6 ± 1.03 µM | cell death in cell-survival assays (HepG2 cells [3]; compared with C3-C6): greater cell death in a dose-dependent manner | intracellular accumulation in MCF7/Dox versus MCF7 (MCF7 and MCF7/Dox cells): substantially lower level in MCF7/Dox than in MCF7 | colony-forming ability (MCF7 cells): showed this effect only in the case of the MCF7 cells | reduction in tumor growth [4]: 16%

COc1cccc2c1C(=O)c1c(O)c3c(c(O)c1C2=O)C[C@@](O)(C(=O)CO)C[C@@H]3O[C@H]1C[C@H](NC(=O)OC(Cc2cn(CCCCCC[P+](c3ccccc3)(c3ccccc3)c3ccccc3)nn2)c2ccc(NC(=O)C(C)C)cc2)[C@H](O)[C@H](C)O1 (stereo partly drawn) [C3]
tumor cell selectivity of cellular uptake [1]: taken up specifically by cancer cells | intracellular (mitochondrial) localization (HepG2 cells [2]): located predominantly within the mitochondria | effect on p21^Waf1 and phosphorylated PDH levels [5]: no effect on p21^Waf1 or PDH phosphorylation | cytochrome c release, cleavage of caspase-3 and PARP-1, decrease in cell viability (MCF7/Dox cells): fails to evoke these effects | reduction in tumor growth [4]: 9%

C#CCC(OC(=O)N[C@H]1C[C@H](O[C@H]2C[C@](O)(C(=O)CO)Cc3c(O)c4c(c(O)c32)C(=O)c2c(OC)cccc2C4=O)O[C@@H](C)[C@H]1O)c1ccc(NC(=O)C(C)C)cc1 (stereo partly drawn) [C4]
tumor cell selectivity of cellular uptake [1]: no cellular selectivity | intracellular (mitochondrial) localization (HepG2 cells [2]): no detectable mitochondrial localization | reduction in tumor growth [4]: 6%
